{"source": "patent US20090313718A1", "about": "“POLYNUCLEOTIDES ENCODING CARYOPHYLLENE SYNTHASE AND USES THEREOF” (priority 2006, published 2009)", "key": {"[1]": {"conditions": "stored at −80° C."}, "TPS23-Del [2]": {"molecular_target": "T1, TPS23-Del (Zea mays, UniProt B2C4D0)", "T1 sequence (B2C4D0 1-547)": "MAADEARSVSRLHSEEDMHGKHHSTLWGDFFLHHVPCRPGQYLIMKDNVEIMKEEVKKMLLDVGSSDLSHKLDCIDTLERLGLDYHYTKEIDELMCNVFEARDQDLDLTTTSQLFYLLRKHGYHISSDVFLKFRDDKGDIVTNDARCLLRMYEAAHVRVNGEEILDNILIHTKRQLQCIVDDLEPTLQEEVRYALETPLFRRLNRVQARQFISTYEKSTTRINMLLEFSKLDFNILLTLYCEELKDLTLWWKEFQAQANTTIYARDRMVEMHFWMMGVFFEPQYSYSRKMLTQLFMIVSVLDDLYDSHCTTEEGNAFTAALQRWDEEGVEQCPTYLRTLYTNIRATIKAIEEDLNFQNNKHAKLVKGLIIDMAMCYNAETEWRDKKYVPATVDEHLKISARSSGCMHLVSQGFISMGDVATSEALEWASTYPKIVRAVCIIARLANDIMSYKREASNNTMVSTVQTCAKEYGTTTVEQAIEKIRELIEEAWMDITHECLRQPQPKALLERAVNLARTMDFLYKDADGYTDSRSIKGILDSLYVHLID", "assay": "Kinetic and metal ion cofactor assay with purified TPS23 and tritium-labeled FPP", "protocol": "(§1) The construct was introduced into the E. coli strain BL21 (DE3) and fully sequenced to avoid errors introduced by DNA amplification. Liquid cultures of the bacteria harboring the expression constructs were grown at 37° C. to an OD600 of 0.6. Then, isopropyl-β-thiogalactopyranoside was added to a final concentration of 1 mM, and the cultures were incubated for 20 hours at 18° C. The cells were collected by centrifugation and disrupted by a 4×30 s treatment with a sonicator (Bandelin UW2070) in chilled extraction buffer (50 mM Mopso, pH 7.0, with 5 mM MgCl2, 5 mM sodium ascorbate, 0.5 mM PMSF, 5 mM dithiothreitol and 10% (v/v) glycerol). The cell fragments were removed by centrifugation at 14,000 g and the supernatant was desalted into assay buffer (10 mM Mopso, pH 7.0, 1 mM dithiothreitol, 10% (v/v) glycerol) by passage through a Econopac 10DG column (BioRad, Hercules, Calif., USA). For kinetic studies the His-tagged enzyme was further purified on a nickel-nitrilotriacetate agarose column (Qiagen, Heidelberg, Germany) according to manufacturer's instructions.\n(§2) Assay for Terpene Synthase Activity • To determine the catalytic activity of the terpene synthase TPS23, enzyme assays containing 50 μl of the bacterial extract and 50 μl assay buffer with 10 μM (E,E)-FPP, 10 mM MgCl2, 0.05 mM MnCl2, 0.2 mM NaWO4 and 0.1 mM NaF in a Teflon-sealed, screw-capped 1 ml GC glass vial were performed. […] The assay was overlaid with 1 ml pentane to trap volatile products and incubated for 20 min at 30° C. The reaction was stopped by mixing, and 0.5 ml of the pentane layer was taken for measurement of radioactivity by liquid scintillation counting in 2 ml Lipoluma cocktail (Packard Bioscience, Groningen, The Netherlands) using a Packard Tricarb 2300TR liquid scintillation counter (^3H efficiency=61%). […] Assay results are reported as the mean of three independent replicate assays, and each experiment was repeated 2-3 times with similar results. The Km values were determined using seven substrate concentrations with four repetitions each. […] The concentration of the purified protein was determined by the method of Bradford (1976) using the BioRad reagent with BSA as standard.\n(§3) To determine the biochemical properties of TPS23-Del, the purified enzyme was incubated with tritium-labeled FPP and the assays performed under the appropriate conditions."}, "TPS23-Del [3]": {"molecular_target": "T1, TPS23-Del", "assay": "Substrate specificity and product identification of recombinant TPS23 (SPME, GC-MS)", "assay_type": "biochemical, maize (Zea mays L.)", "set-up": "For expression with a N-terminal 8×His tag the ORF of tps23 was amplified; 8xHis (N); made in house; host or cells: E. coli BL21 (DE3), vector pHIS8-3", "conditions": "recombinant His-tagged TPS23-Del from E. coli BL21 (DE3)", "protocol": "as §1\nAssay for Terpene Synthase Activity • To determine the catalytic activity of the terpene synthase TPS23, enzyme assays containing 50 μl of the bacterial extract and 50 μl assay buffer with 10 μM (E,E)-FPP, 10 mM MgCl2, 0.05 mM MnCl2, 0.2 mM NaWO4 and 0.1 mM NaF in a Teflon-sealed, screw-capped 1 ml GC glass vial were performed. A SPME (solid phase microextraction) fiber consisting of 100 μm Polydimethylsiloxane (SUPELCO, Belafonte, Pa., USA) was placed into the headspace of the vial for 1 h incubation at 30° C. […] Assay results are reported as the mean of three independent replicate assays, and each experiment was repeated 2-3 times with similar results. […] The concentration of the purified protein was determined by the method of Bradford (1976) using the BioRad reagent with BSA as standard.\nGas Chromatography • A Hewlett-Packard model 6890 gas chromatograph was employed with the carrier gas He at 1 ml min^−1, splitless injection (injector temperature—220° C.), a Chrompack CP-SIL-5 CB-MS column ((5%-phenyl)-methylpolysiloxane, 25 m×0.25 mm i.d.×0.25μ film thickness, Varian, USA) and a temperature program from 40° C. (3-min hold) at 5° C. min^−1 to 240° C. (3 min hold). The coupled mass spectrometer was a Hewlett-Packard model 5973 with a quadrupole mass selective detector, transfer line temperature—230° C., source temperature—230° C., quadrupole temperature—150° C., ionization potential—70 eV and a scan range of 40-350 atomic mass units. Products were identified by comparison of retention times and mass spectra with authentic reference compounds. […]"}, "Cotesia marginiventris": {"test_system": "Cotesia marginiventris", "assay": "Four-arm olfactometer assay with parasitoid females", "assay_type": "in vivo", "conditions": "odor vs pure air", "procedure": "FIG. 9 provides evidence that the parasitic wasp Cotesia marginiventris is attracted by (E)-β-caryophyllene after previous oviposition experience. Responses of the parasitic wasp Cotesia marginiventris to (E)-β-caryophyllene: The attraction of parasitoid females to a pure standard of (E)-β-caryophyllene was tested in a four-arm olfactometer. Two groups of parasitoids were tested: naïve wasps and wasps with a previous oviposition experience on host larvae in the presence of (E)-β-caryophyllene. The parasitoids were tested in groups of six (n=14).\n9. […] On the next day, recovered nematodes were counted. • To test the above ground role of (E)-β-caryophyllene in attracting herbivore enemies, S. littoralis caterpillars and the solitary endoparasitoid Cotesia marginiventris were reared as described by Turlings et al. (2004). […] The experiment was repeated seven times. • The behavioral responses of parasitoids and entomopathogenic nematodes to (E)-β-caryophyllene were analyzed with a log-linear model corrected for the expected distribution within the olfactometer (Turlings et al. 2004). The model was fitted by maximum quasilikelihood estimation in the software package R (Version 2.4.0) and its adequacy was assessed through likelihood ratio statistics and examination of residuals. […]"}, "pathogens": {"test_system": "pathogens", "conditions": "cited from earlier work"}, "Heterorhabditis megidis": {"test_system": "Heterorhabditis megidis", "assay": "Belowground six-arm olfactometer assay", "assay_type": "in vivo", "procedure": "9. Bioassays • Attraction of the nematode Heterorhabditis megidis toward (E)-β-caryophyllene was tested with belowground six-arm olfactometer assays (Rasmann et al., 2005). The apparatus consisted of a central glass chamber with six evenly distributed side arms that connect it to six glass pots. The entire system was filled with moist sand (10% water). An aliquot of 0.2 μl of authentic (E)-β-caryophyllene (98% pure; Sigma-Aldrich) was injected into one of the glass pots and the five untreated pots were used as controls. About 2000 H. megidis were released in a drop of water in the centre of the central arena. […] On the next day, recovered nematodes were counted. • To test the above ground role of (E)-β-caryophyllene in attracting herbivore enemies, S. littoralis caterpillars and the solitary endoparasitoid Cotesia marginiventris were reared as described by Turlings et al. (2004). […] The experiment was repeated seven times. • The behavioral responses of parasitoids and entomopathogenic nematodes to (E)-β-caryophyllene were analyzed with a log-linear model corrected for the expected distribution within the olfactometer (Turlings et al. 2004). The model was fitted by maximum quasilikelihood estimation in the software package R (Version 2.4.0) and its adequacy was assessed through likelihood ratio statistics and examination of residuals. […]"}, "[4]": {"test_system": "adult females of D. v. virgifera", "conditions": "in vivo; cited from earlier work"}, "[5]": {"substrate": "CC(C)=CCC/C(C)=C/CC/C(C)=C/CO[P@@](=O)(O)OP(=O)(O)O", "assay": "purified protein, by the assay type", "conditions": "other: FPP as substrate, TPS23-Del heterologously expressed in E. coli", "protocol": "as §1, §2, §3"}, "[6]": {"conditions": "read-out: Km of divalent metal ion cofactor, TPS23-Del heterologously expressed in E. coli"}}, "note": "Entries after “also recorded” stand apart in the source; their conditions may differ. Where two headings read alike, the source gives them in different places.", "data": [{"molecule": "CN1CCCCC1CCN1c2ccccc2Sc2ccc([S+](C)[O-])cc21", "note": "(stereo not shown) [TPS23-Del]", "values": [{"measurement": "time enzyme activity was stable", "setting": "[1]", "result": "at least 1 month"}]}, {"molecule": "CC(C)=CCC/C(C)=C/CC/C(C)=C/CO[P@@](=O)(O)OP(=O)(O)O", "note": "[FPP, (E,E)-farnesyl diphosphate]", "values": [{"measurement": "Km", "setting": "TPS23-Del [2]; read-out: Km value for FPP, purified enzyme, tritium-labeled FPP", "result": "2.4 ± 0.4", "unit": "µM"}]}, {"molecule": "CC(C)=CCC/C(C)=C/CC/C(C)=C/CC/C(C)=C/COP(=O)(O)OP(=O)(O)O", "note": "[GGPP, geranylgeranyl diphosphate]", "values": [{"measurement": "acceptance as substrate", "setting": "TPS23-Del [3]", "result": "does not accept; also recorded: did not accept"}]}, {"molecule": "[Mn+2]", "note": "[Mn^2+]", "values": [{"measurement": "enzyme activity with divalent cation", "setting": "TPS23-Del [2]; 0.25 mM", "result": "substantial activities"}, {"measurement": "Km", "setting": "TPS23-Del [2]; [6]", "result": "28 ± 6", "unit": "µM"}]}, {"molecule": "CC(C)=CCC/C(C)=C/COP(=O)(O)OP(=O)(O)O", "note": "[GPP, geranyl diphosphate]", "values": [{"measurement": "acceptance as substrate", "setting": "TPS23-Del [3]", "result": "does not accept; also recorded: did not accept"}]}, {"molecule": "C=C1CC/C=C(\\C)CC[C@@H]2[C@@H]1CC2(C)C", "note": "[(E)-β-caryophyllene]", "values": [{"measurement": "attraction of experienced wasps", "setting": "Cotesia marginiventris; females with previous oviposition experience on host larvae in the presence of (E)-β-caryophyllene", "result": "significant preference; also recorded: preferred air carrying (E)-β-caryophyllene to pure air"}, {"measurement": "attraction of naïve wasps", "setting": "Cotesia marginiventris; females without oviposition experience", "result": "did not show this preference; also recorded: not attracted"}, {"measurement": "anti-microbial activity", "setting": "pathogens", "result": "has anti-microbial activity"}, {"measurement": "nematodes recovered from spiked arm compared to average of the five arms not spiked", "setting": "Heterorhabditis megidis; 0.2 μl injected into one pot, 24 h after release of about 2000 H. megidis", "result": "Approximately twice"}, {"measurement": "attraction of nematodes", "setting": "Heterorhabditis megidis; six-arm olfactometer filled with moist sand, spiked arm vs five control arms", "result": "significantly larger number; also recorded: attracts"}, {"measurement": "attractiveness to adult females of D. v. virgifera", "setting": "[4]", "result": "reported attractiveness"}]}, {"molecule": "[Mg+2]", "note": "[Mg^2+]", "values": [{"measurement": "enzyme activity with divalent cation", "setting": "TPS23-Del [2]; 10 mM", "result": "substantial activities"}, {"measurement": "Km", "setting": "TPS23-Del [2]; [6]", "result": "183 ± 34", "unit": "µM"}]}, {"molecule": "TPS23-Del (Zea mays) (protein) MAADEARSVSRLHSEEDMHGKHHSTLWGDFFLHHVPCRPGQYLIMKDNVEIMKEEVKKMLLDVGSSDLSHKLDCIDTLERLGLDYHYTKEIDELMCNVFEARDQDLDLTTTSQLFYLLRKHGYHISSDVFLKFRDDKGDIVTNDARCLLRMYEAAHVRVNGEEILDNILIHTKRQLQCIVDDLEPTLQEEVRYALETPLFRRLNRVQARQFISTYEKSTTRINMLLEFSKLDFNILLTLYCEELKDLTLWWKEFQAQANTTIYARDRMVEMHFWMMGVFFEPQYSYSRKMLTQLFMIVSVLDDLYDSHCTTEEGNAFTAALQRWDEEGVEQCPTYLRTLYTNIRATIKAIEEDLNFQNNKHAKLVKGLIIDMAMCYNAETEWRDKKYVPATVDEHLKISARSSGCMHLVSQGFISMGDVATSEALEWASTYPKIVRAVCIIARLANDIMSYKREASNNTMVSTVQTCAKEYGTTTVEQAIEKIRELIEEAWMDITHECLRQPQPKALLERAVNLARTMDFLYKDADGYTDSRSIKGILDSLYVHLID", "values": [{"measurement": "Km", "setting": "[5]; 0.25 mM MnCl2", "result": "1.1 ± 0.3", "unit": "µM"}, {"measurement": "Km", "setting": "[5]; 10 mM MgCl2", "result": "3.7 ± 0.5", "unit": "µM"}]}]}
